target: T1, human DHODH (Homo sapiens, UniProt Q02127); assay: Inhibition Assay of DHODH activity; type: biochemical; details: recombinant human DHODH; 50 mM TrisHCl, pH 8,0, 30°C; decrease in absorption at 600 nm
T1 construct: Prof; M. Löffler, Marburg, Germany (gift, not a commercial vendor)
Protocol: 4. Inhibition Assay of DHODH activity
The standard assay mixture contained 50 µM decyclo ubichinone, 100 µM dihydroorotate, 60 µM 2,6-dichloroindophenol, as well as 20 mU DHODH. The volume activity of the recombinant enzyme used was 30 U/ml. Measurements were conducted in 50 mM TrisHCl (150 mM KCl, 0,1% Triton X-100, pH 8,0) at 30°C in a final volume of 1 ml. The components were mixed, and the reaction was started by adding dihydroorotate. The course of reaction was followed by spectrophotometrically measuring the decrease in absorption at 600 nm for 2 min. Inhibitory studies were conducted in a standard assay with additional variable amounts of inhibitor. […] These investigations were carried out with recombinant human as well as with recombinant murine DHODH provided by Prof. M. Löffler, Marburg, Germany [M. Löffler, Chem. Biol. Interact.

T1 sequence (Q02127 whole entry): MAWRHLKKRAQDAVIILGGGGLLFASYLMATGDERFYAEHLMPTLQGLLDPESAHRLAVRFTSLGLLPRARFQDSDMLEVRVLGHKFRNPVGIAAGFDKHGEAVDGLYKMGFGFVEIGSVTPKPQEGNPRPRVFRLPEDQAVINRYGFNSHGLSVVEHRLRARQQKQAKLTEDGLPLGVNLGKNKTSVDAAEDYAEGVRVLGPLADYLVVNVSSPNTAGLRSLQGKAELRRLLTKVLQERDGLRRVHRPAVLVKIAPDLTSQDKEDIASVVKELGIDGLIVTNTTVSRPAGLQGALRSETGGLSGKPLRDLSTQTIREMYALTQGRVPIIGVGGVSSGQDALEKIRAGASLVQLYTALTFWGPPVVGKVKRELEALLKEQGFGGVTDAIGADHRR

**Q.** `O=C(O)C1CCCC1C(=O)Nc1ccc(-c2ccccc2)cc1` (stereo not drawn) [Example 7, 2-(Biphenyl-4-ylcarbamoyl)-cyclopentane carboxylic acid] was tested. Which IC50 did it give?
**A.** Its IC50 is less than 5 µM.

**Q.** For `COc1ccc(-c2cc(F)c(NC(=O)C3CCCC3C(=O)O)c(F)c2)c(OC)c1` (stereo not drawn) [Example 4, 2-(3,5-Difluoro-2',4'-dimethoxy-biphenyl-4-ylcarbamoyl)-cyclopentane carboxylic acid], which IC50 is on record?
**A.** Its IC50 is 5 to 20 µM.

**Q.** For `COc1cccc(-c2ccc(NC(=O)[C@H]3CCC[C@H]3C(=O)O)c(F)c2)c1` (relative stereo) [Example 2, cis 2-(3-Fluoro-3' methoxy-biphenyl-4-ylcarbamoyl)-cyclopentane carboxylic acid], which IC50 is on record?
**A.** Its IC50 is less than 5 µM.

**Q.** With `COc1cccc(-c2ccc(NC(=O)[C@@H]3CCC[C@H]3C(=O)O)c(F)c2)c1` (relative stereo) [Example 1, trans 2-(3-Fluoro-3' methoxy-biphenyl-4-ylcarbamoyl)-cyclopentane carboxylic acid] as the compound, how does the IC50 read?
**A.** The IC50 was 5 to 20 µM.

**Q.** `CCOc1ccccc1-c1cc(F)c(NC(=O)C2CCCC2C(=O)O)c(F)c1` (stereo not drawn) [Example 6, 2-(2'-Ethoxy-3,5-difluoro-biphenyl-4-ylcarbamoyl)-cyclopentane carboxylic acid] was tested. Which IC50 did it give?
**A.** Its IC50 is 5 to 20 µM.

**Q.** With `O=C(O)C1CCCC1C(=O)Nc1c(F)cc(-c2ccccc2Cl)cc1F` (stereo not drawn) [Example 3, 2-(2'-Chloro-3,5-difluoro-biphenyl-4-ylcarbamoyl)-cyclopentane carboxylic acid] as the compound, how does the IC50 read?
**A.** The IC50 was less than 5 µM.

**Q.** For `O=C(O)C1CCCC1C(=O)Nc1c(F)cc(-c2cccc(OC(F)(F)F)c2)cc1F` (stereo not drawn) [Example 9, 2-(3,5-Difluoro-3'-trifluoromethoxy-biphenyl-4-ylcarbamoyl)-cyclopentane carboxylic acid], which IC50 is on record?
**A.** Its IC50 is less than 5 µM.

**Q.** `O=C(O)C1CCCC1C(=O)Nc1c(F)c(F)c(-c2cccc(OC(F)(F)F)c2)c(F)c1F` (stereo not drawn) [Example 8, 2-(2,3,5,6-Tetrafluoro 3'-trifluoromethoxy-biphenyl-4-ylcarbamoyl)-cyclo-pentane carboxylic acid] was tested. Which IC50 did it give?
**A.** Its IC50 is less than 5 µM.

**Q.** `CCOc1cccc(-c2cc(F)c(NC(=O)C3CCCC3C(=O)O)c(F)c2)c1` (stereo not drawn) [Example 5, 2-(3'-Ethoxy-3,5-difluoro-biphenyl-4-ylcarbamoyl)-cyclopentane carboxylic acid] was tested. Which IC50 did it give?
**A.** Its IC50 is less than 5 µM.

Source: patent EP1541198A1, “Cycloalkyl compounds as anti-inflammatory, immunomodulatory and anti-proliferatory agents” (4SC AG, priority 2003, dated 2005)
